Results published in ChEMBL document CHEMBL5108052, “Histone Deacetylase and Enhancer of Zeste Homologue 2 Dual Inhibitors Presenting a Synergistic Effect for the Treatment of Hematological Malignancies” (J Med Chem, 2022).
pIC50, pKd: −log10 of the molar value.

Columns and labels:
[1] = Binding affinity to recombinant PRC2 complex (unknown origin) incubated for 90 seconds by surface plasmon resonance assay; set-up: species or system Homo sapiens
[2] = system: MV4-11; assay: Induction of apoptosis in human MV4-11 cells assessed as viable cells at 0.2 uM measured after 48 hrs by Annexin V/7-AAD-dual staining based flow cytometric analysis (reference value: 96.4 %); format: functional; details: read-out: Activity
[3] = system: MV4-11; assay: animal or person; format: functional, Homo sapiens; details: Mus musculus, MV4-11, 480 h, route ip, time 20 day, read-out: TGI
[4] = target: T1, Histone deacetylase 8 (Homo sapiens, UniProt Q9BY41); assay: Inhibition of recombinant C-terminal His-fusion tagged/N-terminal Strep2 tagged human HDAC8 (1 to 377 residues) expressed in insect cells using RHK-K(Ac)-K(Ac)-AMC as substrate incubated for 2 hrs by Multimode microplate reader analysis
T1 sequence (Q9BY41 whole entry): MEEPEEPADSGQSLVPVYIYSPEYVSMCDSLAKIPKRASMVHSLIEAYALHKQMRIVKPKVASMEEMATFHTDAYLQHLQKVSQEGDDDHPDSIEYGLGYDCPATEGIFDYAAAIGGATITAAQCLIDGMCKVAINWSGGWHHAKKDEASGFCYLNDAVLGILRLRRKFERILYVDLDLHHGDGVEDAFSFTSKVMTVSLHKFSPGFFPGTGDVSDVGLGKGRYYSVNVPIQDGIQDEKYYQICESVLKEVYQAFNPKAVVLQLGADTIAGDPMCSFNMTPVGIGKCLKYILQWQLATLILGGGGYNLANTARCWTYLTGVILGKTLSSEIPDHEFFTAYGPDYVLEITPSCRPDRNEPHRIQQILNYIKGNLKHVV

[5] = system: MV4-11; assay: Induction of apoptosis in human MV4-11 cells assessed as necrotic cells at 0.2 uM measured after 48 hrs by Annexin V/7-AAD-dual staining based flow cytometric analysis (reference value: 0.3 %); format: functional
[6] = target: T2, Polyamine deacetylase HDAC10 (Homo sapiens, UniProt Q969S8); assay: Inhibition of HDAC10 (unknown origin) incubated for 2 hrs by Multimode microplate reader analysis
T2 sequence (Q969S8 whole entry): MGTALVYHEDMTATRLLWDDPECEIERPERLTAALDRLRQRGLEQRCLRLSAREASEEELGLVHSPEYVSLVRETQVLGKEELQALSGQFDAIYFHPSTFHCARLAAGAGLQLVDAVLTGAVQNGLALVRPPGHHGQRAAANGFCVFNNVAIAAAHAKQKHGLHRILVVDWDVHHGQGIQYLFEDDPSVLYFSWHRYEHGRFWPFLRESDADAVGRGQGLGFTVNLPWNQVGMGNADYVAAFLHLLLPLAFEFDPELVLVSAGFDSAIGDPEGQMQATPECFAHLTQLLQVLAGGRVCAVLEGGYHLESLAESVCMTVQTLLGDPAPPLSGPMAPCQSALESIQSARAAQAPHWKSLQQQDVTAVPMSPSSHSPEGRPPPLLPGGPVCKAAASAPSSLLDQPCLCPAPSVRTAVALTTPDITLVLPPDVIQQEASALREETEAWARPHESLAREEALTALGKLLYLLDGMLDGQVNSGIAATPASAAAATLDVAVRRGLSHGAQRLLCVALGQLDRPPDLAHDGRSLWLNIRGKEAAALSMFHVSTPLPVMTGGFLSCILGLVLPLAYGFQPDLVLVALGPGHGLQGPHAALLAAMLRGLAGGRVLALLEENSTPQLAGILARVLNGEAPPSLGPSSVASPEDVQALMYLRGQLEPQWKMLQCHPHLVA

[7] = Metabolic stability in human liver microsomes assessed as half life measured after 5 mins in presence of NADPH and UDPGA by LC-MS/MS analysis; format: ADME, Microsome
[8] = system: MV4-11; assay: Induction of apoptosis in human MV4-11 cells assessed as late apoptotic cells at 0.1 uM measured after 48 hrs by Annexin V/7-AAD-dual staining based flow cytometric analysis (reference value: 1.1 %); format: functional
[9] = target: Histone deacetylase 9 (Homo sapiens, UniProt Q9UKV0); assay: Inhibition of HDAC9 (unknown origin) incubated for 2 hrs by Multimode microplate reader analysis
Sequence of Histone deacetylase 9 (Q9UKV0 whole entry, the tested form may be a part): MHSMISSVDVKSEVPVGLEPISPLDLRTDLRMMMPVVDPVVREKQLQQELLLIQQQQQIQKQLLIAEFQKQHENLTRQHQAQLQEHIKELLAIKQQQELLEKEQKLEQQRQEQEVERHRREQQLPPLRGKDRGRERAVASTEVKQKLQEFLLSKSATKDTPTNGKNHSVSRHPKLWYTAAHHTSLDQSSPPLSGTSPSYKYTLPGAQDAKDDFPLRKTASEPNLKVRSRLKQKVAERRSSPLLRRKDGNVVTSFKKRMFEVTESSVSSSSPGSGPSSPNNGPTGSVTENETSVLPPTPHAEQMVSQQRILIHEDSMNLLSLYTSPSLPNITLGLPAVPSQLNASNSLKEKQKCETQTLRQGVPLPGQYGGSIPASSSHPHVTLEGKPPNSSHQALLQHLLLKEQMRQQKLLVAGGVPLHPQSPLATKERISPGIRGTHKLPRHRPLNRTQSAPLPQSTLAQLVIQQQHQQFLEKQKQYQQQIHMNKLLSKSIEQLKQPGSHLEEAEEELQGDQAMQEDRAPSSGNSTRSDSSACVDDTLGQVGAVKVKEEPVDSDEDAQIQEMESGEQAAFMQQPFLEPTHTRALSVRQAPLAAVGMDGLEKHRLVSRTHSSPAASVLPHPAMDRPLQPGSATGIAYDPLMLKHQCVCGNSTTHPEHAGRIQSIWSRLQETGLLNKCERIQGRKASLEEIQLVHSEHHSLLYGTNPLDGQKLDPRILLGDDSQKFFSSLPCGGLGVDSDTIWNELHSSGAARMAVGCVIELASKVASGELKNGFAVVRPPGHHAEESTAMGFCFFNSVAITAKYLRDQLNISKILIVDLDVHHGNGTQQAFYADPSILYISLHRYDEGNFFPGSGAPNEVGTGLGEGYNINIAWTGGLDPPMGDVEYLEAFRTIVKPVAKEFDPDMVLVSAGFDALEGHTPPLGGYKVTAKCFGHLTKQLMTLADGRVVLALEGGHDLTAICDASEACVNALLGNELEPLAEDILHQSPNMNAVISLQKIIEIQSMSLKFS

[10] = target: Histone deacetylase 5 (Homo sapiens, UniProt Q9UQL6); assay: Inhibition of recombinant C-terminal his fusion-tagged human HDAC5 (656 to 1122 residues) expressed in baculovirus expression system using trifluoroacetyl lysine as substrate incubated for 2 hrs by Multimode microplate reader analysis
Sequence of Histone deacetylase 5 (Q9UQL6 whole entry, the tested form may be a part): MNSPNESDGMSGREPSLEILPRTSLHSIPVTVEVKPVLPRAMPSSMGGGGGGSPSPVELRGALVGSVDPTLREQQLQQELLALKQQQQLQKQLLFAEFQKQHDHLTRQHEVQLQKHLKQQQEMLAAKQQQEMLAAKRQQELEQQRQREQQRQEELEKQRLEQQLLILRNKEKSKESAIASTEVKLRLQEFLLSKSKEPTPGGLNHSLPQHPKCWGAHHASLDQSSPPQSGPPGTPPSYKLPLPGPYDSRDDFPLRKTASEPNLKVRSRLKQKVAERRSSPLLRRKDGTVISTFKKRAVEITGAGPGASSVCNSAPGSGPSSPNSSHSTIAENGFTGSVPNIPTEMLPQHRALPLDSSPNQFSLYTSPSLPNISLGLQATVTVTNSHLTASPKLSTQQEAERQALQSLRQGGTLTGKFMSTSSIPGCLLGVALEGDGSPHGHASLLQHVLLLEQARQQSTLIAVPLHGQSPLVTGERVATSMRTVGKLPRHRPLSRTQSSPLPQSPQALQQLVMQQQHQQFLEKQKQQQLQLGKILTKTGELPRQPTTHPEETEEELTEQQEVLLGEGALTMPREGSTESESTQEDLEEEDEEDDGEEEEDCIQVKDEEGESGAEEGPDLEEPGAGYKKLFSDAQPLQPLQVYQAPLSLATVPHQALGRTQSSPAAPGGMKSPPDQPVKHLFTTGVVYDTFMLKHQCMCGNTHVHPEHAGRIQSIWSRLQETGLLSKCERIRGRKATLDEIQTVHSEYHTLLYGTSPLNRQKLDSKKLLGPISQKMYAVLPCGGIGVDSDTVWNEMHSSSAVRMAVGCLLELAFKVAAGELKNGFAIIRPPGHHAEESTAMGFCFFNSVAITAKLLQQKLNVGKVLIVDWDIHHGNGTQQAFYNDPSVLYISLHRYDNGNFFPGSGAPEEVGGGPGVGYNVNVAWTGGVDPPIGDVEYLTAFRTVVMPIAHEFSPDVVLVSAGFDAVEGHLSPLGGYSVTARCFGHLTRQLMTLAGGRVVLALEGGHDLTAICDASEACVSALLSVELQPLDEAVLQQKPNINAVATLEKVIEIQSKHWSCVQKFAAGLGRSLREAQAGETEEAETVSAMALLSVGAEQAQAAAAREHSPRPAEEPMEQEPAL

[11] = target: T3, Protein deacetylase HDAC6 (Homo sapiens, UniProt Q9UBN7); assay: Inhibition of HDAC6 (unknown origin) preincubated for 5 mins followed by substrate addition and measured after 30 mins by multimode microplate reader analysis
T3 sequence (Q9UBN7 whole entry): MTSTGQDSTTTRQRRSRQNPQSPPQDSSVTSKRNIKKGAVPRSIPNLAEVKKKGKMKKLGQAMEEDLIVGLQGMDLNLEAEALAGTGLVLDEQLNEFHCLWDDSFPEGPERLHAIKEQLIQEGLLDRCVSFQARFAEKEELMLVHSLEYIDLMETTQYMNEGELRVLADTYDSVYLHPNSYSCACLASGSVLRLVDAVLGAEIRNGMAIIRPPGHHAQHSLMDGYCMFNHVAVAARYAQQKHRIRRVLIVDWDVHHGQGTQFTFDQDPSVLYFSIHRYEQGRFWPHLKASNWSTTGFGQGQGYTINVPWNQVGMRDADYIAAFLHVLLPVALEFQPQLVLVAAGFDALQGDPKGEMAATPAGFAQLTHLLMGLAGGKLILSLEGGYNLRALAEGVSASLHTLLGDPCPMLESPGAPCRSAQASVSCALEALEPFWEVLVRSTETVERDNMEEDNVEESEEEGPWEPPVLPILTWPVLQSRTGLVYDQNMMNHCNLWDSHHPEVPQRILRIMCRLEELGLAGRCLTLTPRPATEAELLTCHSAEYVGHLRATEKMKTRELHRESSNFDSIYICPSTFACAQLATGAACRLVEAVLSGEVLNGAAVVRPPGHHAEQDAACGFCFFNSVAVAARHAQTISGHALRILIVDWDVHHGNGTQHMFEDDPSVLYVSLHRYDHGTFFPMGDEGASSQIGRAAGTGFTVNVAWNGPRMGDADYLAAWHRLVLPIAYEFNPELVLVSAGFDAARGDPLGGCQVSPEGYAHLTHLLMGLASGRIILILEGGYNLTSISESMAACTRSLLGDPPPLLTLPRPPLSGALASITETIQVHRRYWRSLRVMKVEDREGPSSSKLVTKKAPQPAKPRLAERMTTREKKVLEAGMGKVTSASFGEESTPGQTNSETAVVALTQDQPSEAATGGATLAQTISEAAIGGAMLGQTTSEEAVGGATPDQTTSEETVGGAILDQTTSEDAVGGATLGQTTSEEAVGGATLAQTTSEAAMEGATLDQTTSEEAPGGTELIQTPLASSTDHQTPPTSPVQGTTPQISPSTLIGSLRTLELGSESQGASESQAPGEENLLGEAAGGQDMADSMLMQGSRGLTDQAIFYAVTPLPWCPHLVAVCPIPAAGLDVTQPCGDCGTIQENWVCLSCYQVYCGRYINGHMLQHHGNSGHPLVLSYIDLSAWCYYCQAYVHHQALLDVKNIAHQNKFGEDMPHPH

Cc1cc(C)c(CNC(=O)c2cc(-c3ccc(N4CCN(c5ncc(C(=O)NO)cn5)CC4)nc3)cc3c2cnn3C(C)C)c(=O)[nH]1
pKd [1]: 7.41
viability at 0.2 µM [2]: 74%
inhibition in vivo at 100 mg/kg [3]: 82%
pIC50 [4]: 6.96
Activity [5]: 2%
pIC50 [6]: 5.83
half-life [7]: 15.3 min
Activity [8]: 4.4%
pIC50 [9]: 5.15
pIC50 [10]: 5.54
pIC50 [11]: 6.15
